According to patent US20150065472A1, “INTRAUTERINE APPLICATION OF 18-METHYL-15SS,16SS-METHYLENE-19-NOR-20-SPIROX-4-EN-3-ONE SYSTEMS, INTRAUTERINE SYSTEMS CONTAINING 18-METHYL-15SS,16SS-METHYLENE-19-NOR-20-SPIROX-4-EN-3-ONE, AS WELL AS THE USE THEREOF IN CONTRACEPTION AND GYNAECOLOGICAL THERAPY” (BAYER PHARMA AKTIENGESELLSCHAFT, priority 2012, published 2015):

Columns and labels:
[1] = target: T1, human androgen receptor (hAR) (Homo sapiens, UniProt P10275); assay: hAR transactivation in PC3 cells stably transfected with hAR and MTV-luc reporter gene; assay type: cell-based; details: MTV-luc reporter
T1 construct: expressed in transfected cells; host or cells: PC3 (human prostate carcinoma) cells, stably transfected with hAR and MTV-luc reporter
T1 sequence (P10275 1-920): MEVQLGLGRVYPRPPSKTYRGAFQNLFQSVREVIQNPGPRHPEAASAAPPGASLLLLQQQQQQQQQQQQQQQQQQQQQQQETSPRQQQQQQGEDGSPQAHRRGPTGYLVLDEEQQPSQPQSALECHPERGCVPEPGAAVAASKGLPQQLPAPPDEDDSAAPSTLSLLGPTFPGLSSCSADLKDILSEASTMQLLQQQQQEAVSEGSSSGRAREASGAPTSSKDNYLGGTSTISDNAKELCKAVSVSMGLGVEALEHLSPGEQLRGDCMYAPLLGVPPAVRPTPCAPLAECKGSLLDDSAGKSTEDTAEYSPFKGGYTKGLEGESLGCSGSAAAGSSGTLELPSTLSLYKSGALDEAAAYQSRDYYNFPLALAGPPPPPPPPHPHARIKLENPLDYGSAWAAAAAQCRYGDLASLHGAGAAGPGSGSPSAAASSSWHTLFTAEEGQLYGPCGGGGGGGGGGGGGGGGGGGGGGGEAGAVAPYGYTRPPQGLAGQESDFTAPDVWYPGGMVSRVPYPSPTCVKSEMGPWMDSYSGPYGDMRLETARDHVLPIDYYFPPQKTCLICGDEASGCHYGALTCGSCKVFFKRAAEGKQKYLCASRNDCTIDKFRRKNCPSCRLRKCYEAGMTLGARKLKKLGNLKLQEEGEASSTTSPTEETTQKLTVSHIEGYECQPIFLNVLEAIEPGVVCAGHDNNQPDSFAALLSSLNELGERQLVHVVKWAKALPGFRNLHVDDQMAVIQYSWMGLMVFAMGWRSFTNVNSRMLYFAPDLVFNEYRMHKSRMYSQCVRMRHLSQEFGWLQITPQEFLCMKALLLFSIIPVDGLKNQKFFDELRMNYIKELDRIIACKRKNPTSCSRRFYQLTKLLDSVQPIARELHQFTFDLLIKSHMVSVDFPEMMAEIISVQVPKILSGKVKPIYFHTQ
Source text: The action on the human androgen receptor (hAR) was studied by means of transactivation analyses. For this, different concentrations of the test substances were to cells with stable expression of the human androgen receptor, and activation of the androgen receptor can be detected via a reporter gene.
For transactivation studies, PC3 (human prostate carcinoma) cells which have been stably transfected with hAR and the MTV-luc reporter gene were used. The culture medium used was RPM! medium (without L-glutamine; without Phenol Red) #E15-49 PAA L-glutamine 200 mM #25030-024 Gibco BRL 100 U/100 μg/ml penicillin/streptomycin Gibco # 15140-122, with 10% foetal calf serum (FCS). The cells were cultured at 37° C. and 5% CO2. The test medium corresponded to the culture medium, except that 10% FCS was replaced with 5% activated carbon-treated FCS (CCS). Cells were seeded in wells of a 96 well plate (“CulturPlate” from Packard #6005180) with 2×10^4 cells/well/200 μl of test medium. The cells were incubated with different concentrations of the test substances, and 80 μl of substrate were measured using the “steadylite HTS Reporter Gene Assay System” from Perkin Elmer.

[2] = In-vitro metabolic studies (liver); assay type: in vitro ADME; details: all in-vitro metabolic studies (liver)
[3] = Break-down in vivo in animal species; details: all animal species studied in vivo
[4] = test system: serum LH level of ovary-resected rats; assay: Serum luteinizing hormone (LH) level in ovary-resected rats carrying IUS (rod); assay type: in vivo, rat; details: FIG. 2/4
Method: Serum levels of luteinizing hormone (LH) are used for detecting systemic effects of the locally administered progestin. Basal serum-LH levels of ovary-resected rats are elevated compared to the levels of intact control animals. Undesired systemic efficacy of the uterine-administered progestin can be detected by a decrease in the LH level.
(§1) Ovary-resected female rats were treated with estradiol (E2) for three days (0.2 μg/day/animal, subcutaneous dosing). On day 4, an IUS (rod) was implanted into the right uterine horn of each animal. The left uterine horn remained untreated for internal comparison. Administration of E2 was continued with a daily dose of 0.1 μg/animal to ensure responsiveness of the uterus (maintaining progesterone-receptor expression) to progestins. Blood was taken for LH level measurements on days 4, 10 and 17.

[5] = In-vitro break-down (liver) for humans; assay type: in vitro ADME; details: human liver in vitro
[6] = test system: uterus of ovary-resected rats; assay: Uterine weight gain after implantation of progestin-containing IUS (rod) in ovary-resected rats; assay type: in vivo, rat; details: ovary-resected E2-treated rats, IUS (rod) in right uterine horn, FIG. 1/4
Method: (§2) The local uterine action of the progestin compared to systemic side effects (dissociation) was investigated on the basis of studies using rats. The uterus of ovary-resected rats responds to implantation of progestin-containing IUS (rods) with decidualization and weight gain. The local progestin effects were also determined on the basis of changes in gene expression.
as §1

IGFBP-1 gene expression = assay: Gene expression analysis in rat uterine tissue after IUS (rod) administration; assay type: in vivo; details: rat uterus, FIG. 3/4
Method: as §2
as §1, with “17. […]” for “17.”
Gene expression analysis was carried out with from 50 ng to 200 ng of cDNA per reaction on an SDS7900HT Real.time PCR system (Applied Biosystems, Carlsbad, USA) using TaqMan probes (Applied Biosystems; IGFBP-1 Rn00565713_m1, Cyp26a1 Rn00590308_m1, PPIA Rn00690933_m1) and the Fast Blue qPCR MasterMix Plus (Eurogentec, Liège, Belgium; #RT-QP2X-03+FB). For relative quantification, cyclophilin A (PPIA) was used as an endogenous control. Relative expression levels were calculated according to the comparative delta delta CT method.

SMILES	EC50 [1] [nM]	break-down rate in in-vitro metabolic studies (liver) [2]	break-down rate in vivo [3]	LH decrease (systemic side effect) ([4]; 10 μg/animal and day dose of compound A)	LH decrease (systemic side effect) ([4]; compound A release range tested 0.6-10 μg per animal and day (except the 10 μg dose))	break-down rates in vitro (liver) for humans [5]	local efficacy by way of weight gain in the IUS-carrying uterine horn [6]	rate of release from the IUS at which IGFBP-1 gene expression is induced, lower than with levonorgestrel (IGFBP-1 gene expression)	LH decrease (systemic side effect) ([4]; compound B release range tested 1-45 μg/animal and day)
CC[C@]12CCC3C4CCC(=O)C=C4CCC3C1[C@@H]1C[C@@H]1[C@@]21CCCO1 (stereo partly drawn) [compound A, 18-methyl-15β,16β-methylene-19-nor-20-spirox-4-en-3-one]	6.9	very fast	very fast	exception	no LH decrease	very rapid	dose-dependent local efficacy	approx. 7 ×	–
CC[C@]12CCC3C4CCC(=O)C=C4[C@H]4C[C@H]4C3C1[C@@H]1C[C@@H]1[C@@]21CCCO1 (stereo partly drawn) [compound B, 18-methyl-6α,7α,15β,16β-dimethylene-19-nor-20-spirox-4-en-3-one]	56	very fast	very fast	–	–	very rapid	dose-dependent local efficacy	–	no LH decrease
